Laboratory results published in PubChem BioAssay (NCI).
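Cultured in 96-well plates, cells were exposed to test compound for 48 hours across five concentrations. TGI: concentration producing complete growth inhibition.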

Experiments:
Test in all cases: growth of human tumour cells (NCI), 48 h
MDA-MB-435 = tested on: MDA-MB-435
SK-MEL-2 melanoma = tested on: SK-MEL-2 melanoma
MDA-N = tested on: MDA-N
EKVX NSCLC = tested on: EKVX NSCLC
UACC-257 melanoma = tested on: UACC-257 melanoma
IGROV1 ovarian = tested on: IGROV1 ovarian
NCI-H23 lung = tested on: NCI-H23 lung
BT-549 breast = tested on: BT-549 breast
KM12 colon = tested on: KM12 colon
SK-MEL-28 melanoma = tested on: SK-MEL-28 melanoma
SNB-75 CNS = tested on: SNB-75 CNS
PC-3 prostate = tested on: PC-3 prostate
A549 NSCLC = tested on: A549 NSCLC
HL-60(TB) leukemia = tested on: HL-60(TB) leukemia
ACHN renal = tested on: ACHN renal
NCI/ADR-RES ovarian = tested on: NCI/ADR-RES ovarian
SF-268 CNS = tested on: SF-268 CNS

Row | Compound | TGI (MDA-MB-435) [µM] | TGI (SK-MEL-2 melanoma) [µM] | TGI (MDA-N) [µM] | TGI (EKVX NSCLC) [µM] | TGI (UACC-257 melanoma) [µM] | TGI (IGROV1 ovarian) [µM] | TGI (NCI-H23 lung) [µM] | TGI (BT-549 breast) [µM] | TGI (KM12 colon) [µM] | TGI (SK-MEL-28 melanoma) [µM] | TGI (SNB-75 CNS) [µM] | TGI (PC-3 prostate) [µM] | TGI (A549 NSCLC) [µM] | TGI (HL-60(TB) leukemia) [µM] | TGI (ACHN renal) [µM] | TGI (NCI/ADR-RES ovarian) [µM] | TGI (SF-268 CNS) [µM]
1 | CCOC(=O)CC(=O)Nc1c(C(=O)OCC)sc2nc(SC)nc(Nc3ccc(OC)c(OC)c3)c12 | > 100 | > 100 | > 100 | > 100 | > 100 | > 100 | > 100 | > 100 | > 100 | > 100 | 21.9 | > 100 | > 100 | > 100 | > 100 | > 100 | > 100
2 | CCOP(=O)(OCC)OC1CC(n2cnc3c(N(CC)CC)ncnc32)OC1CO[Si](C)(C)C(C)(C)C (configuration not stated) | 31.7 | 45.6 | 32 | 20.5 | 32.4 | 32.3 | 37.2 | 29.7 | 38.6 | 36.3 | 23.3 | 28.5 | 29.8 | > 100 | 28.8 | 51.8 | 31.5
3 | O=C(O)C1CCCCN1CCc1c[nH]c2ccccc12 (configuration not stated) | > 100 | > 100 | > 100 | > 100 | > 100 | > 100 | > 100 | > 100 | > 100 | > 100 | > 100 | > 100 | > 100 | > 100 | > 100 | > 100 | > 100
4 | O=C(CCl)Nc1ccc(-c2nc3ccccc3s2)cc1 | 12.2 | 8.37 | 7.89 | 17.1 | 11.6 | 3.3 | 10.2 | 2.95 | 11 | 9.66 | 11 | 6.71 | 21.8 | 5.73 | 13.8 | > 56.2 | 8.44
5 | CSc1nc2ccccc2c(=O)n1-c1cccc(C)c1 | > 100 | > 100 | 72.5 | > 100 | > 100 | > 100 | > 100 | > 100 | > 100 | > 100 | > 100 | > 100 | > 100 | 9.77 | > 100 | > 100 | > 100
6 | ClCc1nc2cc(Cl)ccc2o1 | 8.07 | 16 | 21.4 | 8.89 | 22.8 | 3.29 | 24.6 | 28.2 | 28.6 | 20.7 | 24.1 | 19.6 | 42.2 | 21.1 | 3.33 | 98.4 | 26.7
7 | O=C(CN1c2ccccc2Sc2ccccc21)n1cnc2ccccc21 | > 100 | > 100 | > 100 | > 100 | > 100 | > 100 | > 100 | > 100 | > 100 | > 100 | > 100 | > 100 | > 100 | > 100 | > 100 | > 100 | > 100
8 | CC(C)c1cc(C(C)C)c(P2(=O)CC3C(Cl)(Cl)C3(C)C2)c(C(C)C)c1 (configuration not stated) | 26.8 | 24.8 | 27.1 | 31 | 20.9 | 29.5 | 24.3 | 27.7 | 28.4 | 31.9 | 24.8 | 17.8 | 25.6 | 10.7 | 25.1 | 16 | 25.3
9 | COC(=O)C1(Cc2ccccc2C)Cc2ccc(C)cc2C1=O (configuration not stated) | > 100 | 47.7 | > 100 | > 100 | > 100 | > 100 | > 100 | > 100 | > 100 | > 100 | > 100 | 92.6 | > 100 | 30.9 | > 100 | 65.6 | > 100
10 | CC(C)Cn1cnnc1NS(=O)(=O)c1cc(C(=O)NN)c(Cl)cc1S | > 10 | > 10 | > 10 | > 10 | > 10 | > 10 | > 10 | > 10 | > 10 | > 10 | > 10 | > 10 | > 10 | > 10 | > 10 | > 10 | > 10
11 | Cc1c(O)c(OC2OC(CO)C(O)C(O)C2O)cc2c1CC[C@@H]1C2(C)C(=O)C[C@]2(C)[C@@H]([C@@](C)(O)C(O)CCC(C)(C)O)[C@H](O)C[C@@]12C (some centres not stated) | > 100 | > 100 | > 100 | > 100 | > 100 | > 100 | > 100 | > 100 | > 100 | > 100 | > 100 | > 100 | > 100 | > 100 | > 100 | > 100 | > 100
